The subject of series [1] is Ehrlich ascites carcinoma. Kind of series: Antitumor activity and toxicity in ICR-SLC mouse inoculated with Ehrlich ascites carcinoma, i.p. for ten consecutive days. The format is in vivo. To be noted: for Chemotherapeutic index (LD50/ED50): Tables 2 to 4; for Chemotherapeutic index (LD50/ED50) / LD50 (50 % lethal dose) / ED50 (50 % effective dose): i.p., for 10 days, 72000 min; for Prolongation effect on the survival period of ICR-SLC mouse inoculated with Ehrlich ascites carcinoma: as shown in Tables 2 and 3; for LD50 (50 % lethal dose): Behrens-Karber method; for ED50 (50 % effective dose): maximum dose level within the range of longevity ratio of 100 to 200; for Chemotherapeutic index: Table 5, ten consecutive days into peritoneal cavity, evaluated 50 days after beginning. The method, then: The phleomycin was administered for ten consecutive days into peritoneal cavity of a ICR-SLC mouse, into which Ehrlich ascites carcinoma had been inoculated. Fifty days after the beginning of the experiment, measurements were made for (1) the number of dead mouse owing to toxicity, (2) the number of survived mouse, (3) mean survival period in 50 days, and (4) the ratio of mean survival period to that of reference mouse multiplied by 100. The chemotherapeutic index was calculated from the values of ED50 (50 % effective dose) and LD50 (50 % lethal dose) which were obtained as given below.
ED50 value: The maximum dose level within the range of logevity ratio of 100 to 200.
LD50 value: Calculated according to Behrens-Karber method from the data of (1) and (2).
^(2) A bleomycin was administered for ten consecutive days into
peritoneal cavity of a ICR-SLC mouse, where Ehrlich ascites carcinoma had
been inoculated, and 50 days after the beginning of experiment the […]

The test system of series [2] is Mycobacterium smegmatis 607. The experiment in a line: Antimicrobial potency, cylinder agar plate method, Bleomycin A2 (copper-free base) assumed as 1000 U/mg. Format: cell-based. To be noted: Mycobacterium smegmatis 607. The method, then:
1. Antimicrobial potency was assayed by a cylinder agar plate method on the basis of Bleomycin A2 (copper-free base) assumed as 1000 U/mg, using Mycobacterium smegmatis 607 as test organism.
^(1) Assayed by a cylinder-agar plate method using Mycobacterium
smegmatis 607 as test organism, the potency of bleomycin A2
(copper-free base) being assumed as 1000 unit/mg.
The resulting compound has 0.65 of Rf value of the Silica gel thin layer chromatograph (CH3 OH: 10 %-CH3 COONH4 : 10 %-NH4 OH = 10 : 9 : 1) and 0.53 of Rf value of the Avicel thin layer chromatography (n-C3 H7 OH : pyridine : CH3 COOH : H2 O = 15 : 10 : 3 : 12) which are same with those of the 3-morpholinopropylaminobleomycin. The antimicrobial activity to Mycobacterium smegmatis 607 by the cylinder-agar plate method (the standard copper-free bleomycin A2 free base 1,000 U/mg) was 605 U/mg.

[3] abbreviates: 0.19 mg/kg/day for 10 days i.p.
The mark [4] stands for this setting: 0.39 mg/kg/day for 10 days i.p.
The mark [5] stands for this setting: 0.78 mg/kg/day for 10 days i.p.
The mark [6] stands for this setting: 1.56 mg/kg/day for 10 days i.p.
Where [7] appears, read: 3.12 mg/kg/day for 10 days i.p.
The mark [8] stands for this setting: 6.25 mg/kg/day for 10 days i.p.
Where [9] appears, read: 12.5 mg/kg/day for 10 days i.p.
[10] abbreviates: 25.0 mg/kg/day for 10 days i.p.
Setting [11] is: phleomycins of Table 1, Bleomycin A2 (copper-free base) = 1000 U/mg.
Setting [12] is: bleomycins of Table 5, bleomycin A2 (copper-free base) = 1000 unit/mg.

With 3-Morpholinopropylaminophleomycin, the “Average longevity (mean survival period in 50 days)” value (“Average longevity” below) in series [1] (setting [3]) is 20.6; in series [1] (setting [4]), 16.2; in series [1] (setting [5]), 22.8; in series [1] (setting [6]) it was 35.0; in series [1] (setting [7]), 49.2; in series [1] (setting [8]), 50.0. The “Average longevity” value in series [1] (setting [9]) came to 39.2; in series [1] (setting [10]), 26.2. Besides, the “Longevity ratio (mean survival period to that of reference mouse multiplied by 100)” value (from here on “Longevity ratio”) in series [1] (setting [3]) was determined as 167; in series [1] (setting [4]), 133; in series [1] (setting [5]), 187; in series [1] (setting [6]), 287; in series [1] (setting [7]), 403; in series [1] (setting [8]), 410. For the same compound, the entries for the “Longevity ratio” value in series [1] (setting [9]) and in series [1] (setting [10]) were 321 and 215, respectively. For the same compound, the “Toxicity, number dead/total number” value in series [1] (setting [3]), in series [1] (setting [4]), in series [1] (setting [5]), in series [1] (setting [6]), in series [1] (setting [7]) and in series [1] (setting [8]) was 0/5 in each case. Also, the figures for the “Toxicity, number dead/total number” value in series [1] (setting [9]) and in series [1] (setting [10]) were 2/5 and 5/5, respectively. Also, the “Viability (after 50 days), number survived/total number” value was 0/5 in series [1] (setting [3]); 0/5 in series [1] (setting [4]); 0/5 in series [1] (setting [5]); 2/5 in series [1] (setting [6]); 5/5 in series [1] (setting [7]); 5/5 in series [1] (setting [8]). The “Viability (after 50 days), number survived/total number” value in series [1] (setting [9]) is listed as 3/5; in series [1] (setting [10]), 0/5. For the same compound, the “Chemotherapeutic index (LD50/ED50)” value in series [1] is recorded as 19.2. Besides, in series [1], the “Prolongation effect on the survival period of ICR-SLC mouse inoculated with Ehrlich ascites carcinoma” value is given as “distinct prolongation effect”. Also, the “LD50 (50 % lethal dose)” value in series [1] worked out at 15.0 mg/kg/day. Also, the “ED50 (50 % effective dose)” value in series [1] is recorded as 0.78 mg/kg/day. Also, the “Chemotherapeutic index compared with 3-morpholinopropylaminobleomycin” value in series [1] (same terminal amine Y) is “practically same order”. This compound also yielded an Antimicrobial potency in series [2] (setting [11]) of 474 unit/mg.
Consider 3-N,N-Diethylaminopropylaminobleomycin, for which, in series [1], the Chemotherapeutic index was 34.5. Also, the Antimicrobial potency in series [2] (setting [12]) is on record as 1036 Unit/mg.
The corresponding values for 3-N,N-Dimethylaminopropylaminobleomycin are 20.4 and 806 Unit/mg.
As for “3-N-(1-Phenylethyl)aminopropylaminobleomycin”, the Chemotherapeutic index in series [1] is listed as 59.2. Further, the Antimicrobial potency in series [2] (setting [12]) came out at 5320 Unit/mg.
The corresponding values for “3-N-(3-Hydroxypropyl)aminopropylaminobleomycin” are 29.6 and 1021 Unit/mg.
With 3-N-Cyclohexylaminopropylaminobleomycin, the Chemotherapeutic index in series [1] is 16.3. In addition, in series [2] (setting [12]), the Antimicrobial potency is recorded as 6560 Unit/mg.
3-Piperidinopropylaminobleomycin displayed a Chemotherapeutic index in series [1] of 14.4. The Antimicrobial potency in series [2] (setting [12]) was 1257 Unit/mg.
Taken in the same sequence, the figures for 3-Pyrrolidinopropylaminobleomycin were 19.2 and 1066 Unit/mg.
For “3-S,S-Dimethylmercaptopropylaminophleomycin”, the “Average longevity” value in series [1] (setting [3]) amounted to 18.0; in series [1] (setting [4]), 21.0; in series [1] (setting [5]), 29.0; in series [1] (setting [6]), 36.8; in series [1] (setting [7]), 44.0; in series [1] (setting [8]), 33.8. The results for the “Average longevity” value in series [1] (setting [9]) and in series [1] (setting [10]) were 13.0 and 8.6, respectively. The “Longevity ratio” value is on record as 123 in series [1] (setting [3]); 144 in series [1] (setting [4]); 199 in series [1] (setting [5]); 252 in series [1] (setting [6]); 301 in series [1] (setting [7]); 232 in series [1] (setting [8]). Also, the “Longevity ratio” value in series [1] (setting [9]) amounted to 89; in series [1] (setting [10]) it was 59. Further, the “Toxicity, number dead/total number” value in series [1] (setting [3]) is on record as 0/5; in series [1] (setting [4]), 0/5; in series [1] (setting [5]), 0/5; in series [1] (setting [6]), 0/5; in series [1] (setting [7]), 0/5; in series [1] (setting [8]), 3/5. Besides, the “Toxicity, number dead/total number” value in series [1] (setting [9]) and in series [1] (setting [10]) was 5/5 each time. Further, the “Viability (after 50 days), number survived/total number” value is 0/5 in series [1] (setting [3]); 0/5 in series [1] (setting [4]); 2/5 in series [1] (setting [5]); 3/5 in series [1] (setting [6]); 4/5 in series [1] (setting [7]); 1/5 in series [1] (setting [8]). Moreover, the “Viability (after 50 days), number survived/total number” value in series [1] (setting [9]) and in series [1] (setting [10]) was 0/5 in each case. The “Chemotherapeutic index (LD50/ED50)” value in series [1] came out at 8.5. For the same compound, in series [1], the “Prolongation effect on the survival period of ICR-SLC mouse inoculated with Ehrlich ascites carcinoma” value is listed as “distinct prolongation effect”. In series [1], the “LD50 (50 % lethal dose)” value was found to be 6.6 mg/kg/day. Besides, the “ED50 (50 % effective dose)” value in series [1] turned out to be 0.78 mg/kg/day. Besides, the Antimicrobial potency in series [2] (setting [11]) is on record as 865 unit/mg.
In series [1], “3-[3-N-(1-Phenylethyl)aminopropylamino]propylaminobleomycin” had a Chemotherapeutic index of 18.1. The compound further returned an Antimicrobial potency in series [2] (setting [12]) of 9470 Unit/mg.
`Cc1c(N)nc(C(CC(N)=O)NCC(N)C(N)=O)nc1C(=O)NC(C(=O)NC(C)C(O)C(C)C(=O)NC(C(=O)NCCc1nc(-c2nc(C(=O)NCCC[S+](C)C)cs2)cs1)C(C)O)C(OC1OC(CO)C(O)C(O)C1OC1OC(CO)C(O)C(OC(N)=O)C1O)c1cnc[nH]1` (stereo not drawn) [3-S,S-Dimethylmercaptopropylaminobleomycin] displayed a Chemotherapeutic index in series [1] of 12.0. Further, the Antimicrobial potency in series [2] (setting [12]) was 920 Unit/mg.

The values are drawn from patent US3984390A, “Novel process for producing phleomycin group antibiotics” (Zaidan Hojin Biseibutsu Kagaku Kenkyu Kai, priority 1972, dated 1976).
